Columns and labels:
[1] = tested on: CHO cells producing ustekinumab; experiment: Cation exchange chromatography of acidic, main and basic species of ustekinumab from CHO cells cultured with citrulline; assay type: cell-based, Chinese hamster
Protocol: (§1) The stirred tank reactors (STRs) were inoculated with the cell line C20 or with the cell line C69 in pre-heated production medium (PolCHO-P, available from GE healthcare, Catalogue Number G3258.3050), at a target density of 1.0*10^6 viable cells (vc) mL^−1. From day 3 on, 4.2% (v/v) of feed A (available from GE healthcare, Catalogue Number G3259.3010) per day was added at a continuous rate over 24 hours (equivalent to 2.9 g glucose L^−1 day^−1). If required, a D-glucose solution was used to increase glucose concentration in the broth to 4 g L^−1. In addition, 0.42% (v/v) of feed B (available from GE healthcare, Catalogue Number G3260.0001) was added every day as a bolus. For cell line C20 different concentrations of citrulline (5 g/l, 8 g/l and 12 g/l) were added to the medium and to feed A. For cell line C69 10 g/l citrulline in combination with 40 mM sucrose were added to the medium and to feed A.
Additional samples of approximately 30 mL were collected on days 6, 10 and 14, centrifuged and stored in −80° C. for product quality analysis. […]
(§2) For data evaluation the Waters Empower 3 software was used. The sample composition was determined by detecting peaks based on their retention time and the relative proportions of each peak were calculated from the peak areas. […]

[2] = tested on: CHO cells; experiment: Citrulline concentration in culture medium during fermentation (UPLC-MS); assay type: in vitro ADME, Chinese hamster; conditions: cell line C69, stirred tank reactor, 10 g/l citrulline, days 8, 11, 13, 14
Protocol: Additional samples of approximately 30 mL were collected on days 6, 10 and 14, centrifuged and stored in −80° C. for product quality analysis. For the experiments with cell line C69 samples were also taken to determine the concentration of citrulline at different time points (days 8, 11, 13 and 14) during the bioreactor run.
To determine if citulline can be metabolised by CHO cells clarified samples were taken from the stirred tank reactor run with clone C69. Quantification of the concentration of citrulline during the culture was standardized using a 10 g/l citulline solution in WFI and the PolCHO medium was used as a negative control.
About 1 mL of culture medium was centrifuged in an Eppendorf centrifuge at 15000 rpm and at 4° C. for 10 minutes. […]
Using reference sample, the molecular mass of citrulline was confirmed by UPLC-MS to be 175.08 Da. The concentration of citrulline in the reference sample was 55.84 mM as determined by qNMR. The citrulline concentrations in culture medium samples of days 8, 11, 13 and 14 were determined by UPLC-MS analysis after appropriate dilution of the samples and by using external calibration lines prepared using the reference sample. No citrulline was detected in POLCHO medium (see FIG. 11).

[3] = tested on: CHO cells producing omalizumab; experiment: Specific production rate (Qp) for omalizumab; assay type: cell-based, Chinese hamster; conditions: citrulline added, vs control without citrulline (FIG. 8)
Protocol: CHO cell line 230×846 expressing the anti-IgE antibody omalizumab was selected for this experiment. The cell line was thawed and cultured in 25 mL shake flasks (SFs) containing PowerCHO-2 CD medium (Lonza) with 4 mM L-glutamine and 1% (v/v) Fe-citrate solution. Subsequently, the cells were expanded in SFs with increasing volume as seed train. 12 SFs were inoculated at a concentration of 0.5·10^6 vc mL^−1. The SFs were inoculated in 25 mL PowerCHO-2-CD medium containing L-glutamine and Fe-citrate and placed on a shaking plateau in an incubator at 37° C. On the day of inoculation, 2% (v/v) of BC feed and 0.2% (v/v) of cys/tyr feed was given. The glucose concentration was measured every day before feeding. From day 3 on, feeding was done based on glucose consumption of the previous day, aiming for a glucose concentration of 3.5 g/L. Different concentrations of citrulline were added to the medium and BC feed.
(§3) The Octet system performs label-free quantitation of antibodies, proteins, peptides, DNA and other biomolecules and provides kinetic characterization of biomolecular binding interactions. […] The binding rates of the test samples are measured and interpolated from a standard curve generated from a similar or equivalent protein to determine the concentration of the protein. […]

[4] = tested on: CHO cells producing natalizumab; experiment: Cation exchange chromatography of acidic and basic species of natalizumab from CHO cells cultured with citrulline; assay type: cell-based, Chinese hamster; conditions: increasing concentrations of citrulline (8, 12 g/l), 14 days
Protocol: Cell lineC4 expressing natalizumab was cultured in 15 ml AMBR microbioreactors. Dissolved oxygen tension (DOT) was controlled at 40% and the temperature maintained at 36.8° C. during the first 4 days with a temperature shift to 33° C. on day 5 for the rest of the cultivation time. The targeted viable cell concentration at inoculation was 1.0×10^6±0.1 viable cells mL^−1. The post inoculation volume of the production stage bioreactors was set to 15 mL in the microbioreactors of the AMBR system. The pH set point was 7.0±0.1. The basal medium was PolCHO-P CD (available from GE healthcare). From day 3 on, 4.2% (v/v) of PolCHO feed A (available from GE healthcare) per day was added as a bolus. If required, a D-glucose solution was used to increase glucose concentration in the broth to 4 g L^−1. In addition, 0.42% (v/v) of PolCHO feed B (available from GE healthcare) was added every day as a bolus. […]
The separation was carried out by Cation Exchange High Performance Liquid Chromatography on the UPLC H-Class Bio System using UV detection under Empower™ Software control. […] The column temperature was 40° C. and elution was monitored at 220 nm.
as §2

[5] = tested on: CHO cells producing ustekinumab; experiment: Cell diameter by LUNA cell counter; assay type: cell-based, Chinese hamster; conditions: citrulline added, vs control without citrulline (FIG. 2)
Protocol: as §1
b) In another set of experiments cell line C20 expressing ustekinumab was selected. This cell line was thawed and cultured in 25 mL shake flasks (SFs) containing PolCHO-P CD (GE Healthcare) medium with methotrexate and geneticin. […] Every day before feeding, glucose concentration was measured. […]
The viable cell concentration, viability and cell size were determined using a LUNA™ cell counter with the following protocol: […]

[6] = tested on: CHO cells producing ustekinumab; experiment: Specific production rate (Qp) for ustekinumab; assay type: cell-based, Chinese hamster; conditions: citrulline added, vs control without citrulline (FIG. 3)
Protocol: as §1, with “For cell line C20 different concentrations of citrulline (5 g/l, 8 g/l and 12 g/l) were added to the medium and to feed A. For cell line C69 10 g/l citrulline in combination with 40 mM sucrose were added to the medium and to feed A.” left out
b) In another set of experiments cell line C20 expressing ustekinumab was selected. […] Every day before feeding, glucose concentration was measured. […]
as §3

[7] = tested on: CHO cells producing ustekinumab; experiment: Rapifluor-MS released N-glycan analysis of ustekinumab; assay type: cell-based, Chinese hamster; conditions: 5 g/l and 8 g/l citrulline, 12 or 14 days, vs control
Protocol: The shake flasks were inoculated in 25 mL Actipro medium (available from GE healthcare, Catalogue number SH31039.01) and placed on a shaking plateau in an incubator at 37° C. On the day of inoculation, 2% (v/v) of Cell boost 7A (available from GE healthcare, Catalogue number SH31026.02) and 0.2% (v/v) of Cell boost 7B (available from GE healthcare, Catalogue number SH31027.01) was given. From day 3 on, a flat feed was given of 4% (v/v) of Cell boost per day. Every day before feeding, glucose concentration was measured. If required, a D-glucose solution was used to increase glucose concentration in the broth to 4 g L^−1, before feeding. In addition, 0.4% (v/v) of Cell boost 7B was added every day as a bolus. Different concentrations of citrulline (5 g/l and 8 g/l) were added to the medium and to Cell boost 7A. At day 5 after inoculating the cells into the cell culture medium the temperature of the cell culture was reduced to 31° C.±0.2° C.
The N-glycan composition and relative distribution thereof was analyzed using the Rapifluor MS N-Glycan Kit purchased from Waters, using the manufacturer's instructions. It comprises denaturation and release of N-linked glycans by PNGase F from Protein A purified material. The released glycans are then labeled with the proprietary Rapifluor label, which contains a fluorescent moiety and a proton capturing moiety. […]

Structure (SMILES): NC(=O)NCCC[C@H](N)C(=O)O [citrulline]
- basic peaks of ustekinumab ([1]; 12 g L^-1 citrulline, day 14, control 11%): 22%
- acidic 2 peaks of ustekinumab ([1]; increasing concentrations of citrulline (5, 8, 12 g/l), day 14, vs control): decreased dose-dependently
- concentration of citrulline during the fermentation [2]: does not change significantly
- specific production rate Qp for omalizumab [3]: same increase
- sum of acidic peaks of natalizumab [4]: decreased dose-dependently
- sum of basic peaks of natalizumab [4]: increased dose-dependently
- diameter of the cells [5]: increases
- specific production rate Qp for ustekinumab [6]: increases
- G0F, G1F, G1'F, G2F and sum of sialylated species [7]: no differences

Reference: patent US12043845B2, “Methods of cell culture” (Polpharma Biologics S.A., priority 2017, dated 2024)
